In ChEMBL document CHEMBL4043070, “Isolation, Structure Elucidation, and Absolute Configuration of Syncarpic Acid-Conjugated Terpenoids from Rhodomyrtus tomentosa” (J Nat Prod, 2017):

Tests used:
[1] = Cytotoxicity against human MCF7/DX cells incubated for 48 hrs by MTT assay; type: cell-based
[2] = Reversal of multidrug resistance in human MCF7/DX cells assessed as potentiation doxorubicin-induced cytotoxicity by measuring reduction in doxorubicin IC50 level at 30 uM incubated for 48 hrs by MTT assay relative to untreated control; type: functional
[3] = Reversal of multidrug resistance in human MCF7/DX cells assessed as potentiation doxorubicin-induced cytotoxicity by measuring reduction in doxorubicin IC50 level at 5 uM incubated for 48 hrs by MTT assay relative to untreated control; type: functional

SMILES | IC50 [1] [µM] | fold change (FC) [2] | fold change (FC) [3]
CC(C)C[C@H]1C[C@]2(CC[C@]3(C(C)C)C[C@H]23)OC2=C1C(=O)C(C)(C)C(=O)C2(C)C | > 30 | 5.6 | 
C=C[C@@]1(CCC=C(C)C)C[C@H](CC(C)C)C2=C(O1)C(C)(C)C(=O)C(C)(C)C2=O | > 30 | 10.1 | 
CC(C)C[C@H]1C[C@@]2(CC[C@]3(C(C)C)C[C@H]23)OC2=C1C(=O)C(C)(C)C(=O)C2(C)C | > 30 | 1 | 
CC(C)C[C@@H]1C[C@]2(CC[C@]3(C(C)C)C[C@H]23)OC2=C1C(=O)C(C)(C)C(=O)C2(C)C | > 30 | 1.2 | 
COc1ccc(CCN(C)CCCC(C#N)(c2ccc(OC)c(OC)c2)C(C)C)cc1OC (centres undefined) |  |  | 5.4
CC(C)C[C@@H]1C[C@@]2(CC[C@]3(C(C)C)C[C@H]23)OC2=C1C(=O)C(C)(C)C(=O)C2(C)C | > 30 | 4.5 | 
C=C[C@@]1(CCC=C(C)C)C[C@@H](CC(C)C)C2=C(O1)C(C)(C)C(=O)C(C)(C)C2=O | > 30 | 4.7 | 
C=C[C@]1(CCC=C(C)C)C[C@@H](CC(C)C)C2=C(O1)C(C)(C)C(=O)C(C)(C)C2=O | > 30 | 7.4 | 
Cc1ccc2c(c1)[C@H](C(C)C)CC[C@]21C[C@H](CC(C)C)C2=C(O1)C(C)(C)C(=O)C(C)(C)C2=O | > 30 | 0.9 | 
C=C[C@]1(CCC=C(C)C)C[C@H](CC(C)C)C2=C(O1)C(C)(C)C(=O)C(C)(C)C2=O | > 30 | 16.5 | 
